Literature values as cited in patent US20060106545A1, “Methods of clustering proteins” (Jubilant Biosys Ltd., priority 2004, published 2006).

Columns and labels:
[1] = target: PKB (Protein kinase B) (Homo sapiens, UniProt P31749)
[2] = target: MAPK2 (Mitogen-activated protein kinase 2) (Homo sapiens, UniProt P28482)
[3] = system: MKK (Mitogen activated protein kinase kinase)
[4] = target: CK2 (Casein kinase 2) (Homo sapiens, UniProt P68400)
[5] = target: T1, SAPK3 (Stress-activated protein kinase 3) (Homo sapiens, UniProt P53778)
T1 sequence (P53778 1-367): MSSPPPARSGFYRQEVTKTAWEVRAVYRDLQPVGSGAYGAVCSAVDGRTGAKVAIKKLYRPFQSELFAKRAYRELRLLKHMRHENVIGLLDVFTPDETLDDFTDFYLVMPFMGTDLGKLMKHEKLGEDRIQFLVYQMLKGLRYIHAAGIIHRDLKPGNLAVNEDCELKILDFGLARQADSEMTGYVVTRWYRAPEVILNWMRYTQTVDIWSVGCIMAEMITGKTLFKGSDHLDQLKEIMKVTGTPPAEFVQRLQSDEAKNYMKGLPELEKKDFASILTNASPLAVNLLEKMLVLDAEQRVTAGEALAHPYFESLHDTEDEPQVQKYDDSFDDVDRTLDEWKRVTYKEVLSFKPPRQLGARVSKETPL

[6] = system: SAPK2; conditions: kinase SAPK2

Sequence of PKB (Protein kinase B) (P31749 whole entry): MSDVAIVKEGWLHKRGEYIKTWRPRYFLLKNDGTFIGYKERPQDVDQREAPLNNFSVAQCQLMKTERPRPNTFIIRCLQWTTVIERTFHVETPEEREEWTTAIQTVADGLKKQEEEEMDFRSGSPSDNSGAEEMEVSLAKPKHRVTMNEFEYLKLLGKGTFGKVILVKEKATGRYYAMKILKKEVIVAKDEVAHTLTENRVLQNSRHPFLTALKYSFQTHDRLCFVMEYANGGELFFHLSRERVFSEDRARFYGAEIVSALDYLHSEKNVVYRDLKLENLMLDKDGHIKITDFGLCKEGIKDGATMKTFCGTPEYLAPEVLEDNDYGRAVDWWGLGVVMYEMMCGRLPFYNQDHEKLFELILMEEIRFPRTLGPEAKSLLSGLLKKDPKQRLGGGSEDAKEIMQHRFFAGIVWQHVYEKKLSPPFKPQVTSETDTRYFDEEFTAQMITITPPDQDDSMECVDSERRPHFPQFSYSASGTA
Sequence of CK2 (Casein kinase 2) (P68400 whole entry): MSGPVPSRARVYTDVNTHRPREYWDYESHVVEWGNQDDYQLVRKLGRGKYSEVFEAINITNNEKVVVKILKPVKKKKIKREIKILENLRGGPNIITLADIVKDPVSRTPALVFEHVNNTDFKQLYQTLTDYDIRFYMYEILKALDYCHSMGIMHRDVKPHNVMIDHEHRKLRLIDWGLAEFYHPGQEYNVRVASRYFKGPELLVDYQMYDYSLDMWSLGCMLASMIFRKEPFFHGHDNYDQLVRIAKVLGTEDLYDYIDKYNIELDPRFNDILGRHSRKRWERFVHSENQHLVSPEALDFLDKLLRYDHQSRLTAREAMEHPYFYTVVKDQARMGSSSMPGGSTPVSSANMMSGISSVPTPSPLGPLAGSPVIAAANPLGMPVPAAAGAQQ
Sequence of MAPK2 (Mitogen-activated protein kinase 2) (P28482 whole entry): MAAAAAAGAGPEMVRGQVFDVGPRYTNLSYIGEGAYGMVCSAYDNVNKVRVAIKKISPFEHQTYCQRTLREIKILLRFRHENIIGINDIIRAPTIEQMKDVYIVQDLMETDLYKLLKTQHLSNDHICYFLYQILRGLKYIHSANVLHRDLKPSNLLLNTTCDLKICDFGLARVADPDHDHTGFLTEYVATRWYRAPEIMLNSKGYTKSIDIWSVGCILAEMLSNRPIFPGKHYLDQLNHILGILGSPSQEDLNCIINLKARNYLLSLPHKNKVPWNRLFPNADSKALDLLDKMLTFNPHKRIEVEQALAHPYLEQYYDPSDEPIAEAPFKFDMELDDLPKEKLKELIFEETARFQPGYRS

## O=C1Cc2c([nH]c3ccc(Br)cc23)-c2ccccc2N1 [Kenpaullone]
[1]
  % of Expression Bain et al., (2002): 40-60%
[2]
  % of Expression Bain et al., (2002): 60-80%
[3]
  % of Expression Bain et al.: >80%
[4]
  % of Expression Bain et al., (2002): >80%

## CC(C)[C@H](CO)Nc1nc(Nc2cccc(Cl)c2)c2ncn(C(C)C)c2n1 [Purvalanol]
[5]
  percentage of expression, Bain et al., (2003): more than 80%
[6]
  % of Expression Bain et al.: >80%
